Experimental data as given in publication PMC4671658, “Release of 50 new, drug-like compounds and their computational target predictions for open source anti-tubercular drug discovery” (PLoS ONE, 2015).
Converted amounts (≈) assume the structure as drawn.

System: clinical isolate of M.tuberculosis resistant to isoniazid

O=C(NCc1ccco1)N1CCN(Cc2ccc(Cl)s2)CC1 [TCMDC-143653]
MIC against clinical isolate resistant to isoniazid: 1.6 µM (≈ 0.544 µg/mL)
